Data from PubChem BioAssay AID2060361 (Molecular Pharmacology Branch, DTP, NCI, 2025).

System: 463943-066-T-J2-PDC tumor spheroids with HUVEC/MSC, viability
Experiment: Anticancer human tumor 463943-066-T-J2-PDC patient-derived colon adenocarcinoma cell line growth inhibition [TAK]
Details: for IC50: curve of first compound; for viability, T/C: stronger effect = lower value
From the text: Combinatorial screen of targeted agents with TAK-243 and ipatasertib in multi-cell type tumor spheroids
A high-throughput screen of multi-cell type tumor spheroids was designed to identify active combinations of targeted small molecules and TAK-243 or ipatasertib. Complex spheroids include a stromal component modeled by human endothelial cells (HUVEC) and fibroblasts modeled by human mesenchymal stem cells (MSCs). The concentration ranges selected for each drug and investigational agent were based upon clinically achievable concentrations if the clinical Cmax of the agent was known.
Compounds. The drugs and investigational agents: TAK-243 (785004), ipatasertib (767898), everolimus (733504), selumetinib (741078), bortezomib (756655), trametinib (758246), ixazomib (758254), vemurafenib (761431), dabrafenib (764134), sapanisertib (764658), alpelisib (765974), and copanlisib (816437), were obtained from the National Cancer Institute (NCI) Developmental Therapeutics Program Chemical Repository. The FDA-approved anticancer drug set is available from the NCI Developmental Therapeutics Program. […] The stock solutions were prepared in dimethyl sulfoxide (DMSO, Sigma-Aldrich, St. Louis, MO, cat. D2650) at 800-fold the tested concentration and stored at -70 degrees C prior to their use. All drugs and investigational agents were tested over a range starting from a high concentration at or near the clinical Cmax and decreasing in half-log increments. If the clinical Cmax for an agent had not been determined, the highest concentration tested was 10 microM.
NCI60 Cell Culture. NCI60 cell lines were obtained from the NCI Developmental Therapeutics Program Tumor Repository. For each lot of cells, the Repository performed Applied Biosystems AmpFLSTR Identifiler testing with PCR amplification to confirm consistency with the published Identifier STR profile for each cell line. Cells were kept in continuous culture for no more than 20 passages. The optimal seeding densities for each of the cell lines at each time point assessed were determined prior to performing the concentration response studies. Briefly, the NCI60 human tumor lines were grown as monolayers in RPMI 1640 medium supplemented with 10% FBS and 2 mmol/L L-glutamine.
An additional 2 lines were from the NCI60 cell line panel including melanomas, MALME-3M and SK-MEL-2. Pooled donor human umbilical vein endothelial cells (HUVEC, Lonza, cat. CC-2519) and human mesenchymal stem cells (hMSC, Lonza, cat. PT-2501) were purchased from Lonza (Walkersville, MD).
PDMR cell lines were grown in complete medium (DC medium): Dulbecco's modified Eagle's medium (DMEM)/F12 supplemented with 5% fetal bovine serum (FBS), 2 mM L-glutamine, 100 U/mL penicillin and 100 µg/ml streptomycin, 0.4 µg/ml hydrocortisone, 10 ng/ml epidermal growth factor (EGF) recombinant human protein, 24 µg/mL adenine, and 0.1 mg/mL primocin. During culture from frozen stock vials, PDMR cells were cultured in the same medium containing 10 µM Y-27632 (see Table 3). The PDCs were cultured in complete DMEM/F12 media without 10 microM Y-27632 dihydrochloride for at least two passages prior to the screen. The pooled donor HUVEC and hMSC were cultured in endothelial cell growth medium 2 (PromoCell, Heidelberg, Germany, cat. C-22011) and mesenchymal stem cell growth medium 2 (PromoCell, cat. C-28009), respectively. For all experiments, HUVEC and hMSC were used at passages </=5.
For the pre-screen, cell seeding densities were determined from a titration spanning the range from 5,000 to 313 cells per well. The mct-spheroids including 60% malignant cells, 25% HUVEC and 15% MSC dispensed as a mixture into U-bottom Ultra-Low Attachment 384-well plates (Corning, NY)
High-throughput Drug Combination Screening.
Prior to their inoculation into 384-well plates, malignant cells, HUVEC, and hMSC were removed from T flasks using TrypLE express (Thermo Fisher Scientific, cat. 12605036) and harvested by centrifugation for 5 min at 233 x g. […]
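Note: spheroids exposed to drugs for seven days.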
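Throughout, for viability, T/C: 100% = DMSO vehicle control wells.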

CC(C)n1nc(-c2ccc3oc(N)nc3c2)c2c(N)ncnc21 + CC(C)NCC(C(=O)N1CCN(c2ncnc3c2C(C)CC3O)CC1)c1ccc(Cl)cc1
IC50 (second compound 0.3 µM): > 0.1 µM | IC50 (second compound 0.949 µM): > 0.1 µM | IC50 (second compound 3 µM): > 0.1 µM | IC50 (second compound 9.49 µM): > 0.1 µM | IC50 (second compound 30 µM): > 0.1 µM | viability, T/C (second compound 0.3 µM, first compound 0.000316 µM): 112% | viability, T/C (second compound 0.3 µM, first compound 0.001 µM): 102% | viability, T/C (second compound 0.3 µM, first compound 0.00316 µM): 105% | viability, T/C (second compound 0.3 µM, first compound 0.01 µM): 95.2% | viability, T/C (second compound 0.3 µM, first compound 0.0316 µM): 79.6% | viability, T/C (second compound 0.3 µM, first compound 0.1 µM): 74.1% | viability, T/C (second compound 0.949 µM, first compound 0.000316 µM): 100% | viability, T/C (second compound 0.949 µM, first compound 0.001 µM): 97.2% | viability, T/C (second compound 0.949 µM, first compound 0.00316 µM): 81.8% | viability, T/C (second compound 0.949 µM, first compound 0.01 µM): 78.6% | viability, T/C (second compound 0.949 µM, first compound 0.0316 µM): 82.7% | viability, T/C (second compound 0.949 µM, first compound 0.1 µM): 78.5% | viability, T/C (second compound 3 µM, first compound 0.000316 µM): 95.2% | viability, T/C (second compound 3 µM, first compound 0.001 µM): 106% | viability, T/C (second compound 3 µM, first compound 0.00316 µM): 93.4% | viability, T/C (second compound 3 µM, first compound 0.01 µM): 89.8% | viability, T/C (second compound 3 µM, first compound 0.0316 µM): 85.3% | viability, T/C (second compound 3 µM, first compound 0.1 µM): 78.2% | viability, T/C (second compound 9.49 µM, first compound 0.000316 µM): 103% | viability, T/C (second compound 9.49 µM, first compound 0.001 µM): 91.6% | viability, T/C (second compound 9.49 µM, first compound 0.00316 µM): 91.4% | viability, T/C (second compound 9.49 µM, first compound 0.01 µM): 88.3% | viability, T/C (second compound 9.49 µM, first compound 0.0316 µM): 82.6% | viability, T/C (second compound 9.49 µM, first compound 0.1 µM): 74.1% | viability, T/C (second compound 30 µM, first compound 0.000316 µM): 86.1% | viability, T/C (second compound 30 µM, first compound 0.001 µM): 106% | viability, T/C (second compound 30 µM, first compound 0.00316 µM): 83.2% | viability, T/C (second compound 30 µM, first compound 0.01 µM): 89% | viability, T/C (second compound 30 µM, first compound 0.0316 µM): 82% | viability, T/C (second compound 30 µM, first compound 0.1 µM): 74.6%

CCCS(=O)(=O)Nc1ccc(F)c(C(=O)c2c[nH]c3ncc(-c4ccc(Cl)cc4)cc23)c1F + CC(C)NCC(C(=O)N1CCN(c2ncnc3c2C(C)CC3O)CC1)c1ccc(Cl)cc1
IC50 (second compound 0.3 µM): > 100 µM | IC50 (second compound 0.949 µM): > 100 µM | IC50 (second compound 3 µM): > 100 µM | IC50 (second compound 9.49 µM): > 100 µM | IC50 (second compound 30 µM): > 100 µM | viability, T/C (second compound 0.3 µM, first compound 0.316 µM): 105% | viability, T/C (second compound 0.3 µM, first compound 1 µM): 102% | viability, T/C (second compound 0.3 µM, first compound 3.16 µM): 104% | viability, T/C (second compound 0.3 µM, first compound 10 µM): 99.7% | viability, T/C (second compound 0.3 µM, first compound 31.6 µM): 125% | viability, T/C (second compound 0.3 µM, first compound 100 µM): 105% | viability, T/C (second compound 0.949 µM, first compound 0.316 µM): 108% | viability, T/C (second compound 0.949 µM, first compound 1 µM): 104% | viability, T/C (second compound 0.949 µM, first compound 3.16 µM): 103% | viability, T/C (second compound 0.949 µM, first compound 10 µM): 106% | viability, T/C (second compound 0.949 µM, first compound 31.6 µM): 64.2% | viability, T/C (second compound 0.949 µM, first compound 100 µM): 110% | viability, T/C (second compound 3 µM, first compound 0.316 µM): 103% | viability, T/C (second compound 3 µM, first compound 1 µM): 109% | viability, T/C (second compound 3 µM, first compound 3.16 µM): 92.7% | viability, T/C (second compound 3 µM, first compound 10 µM): 92% | viability, T/C (second compound 3 µM, first compound 31.6 µM): 88.4% | viability, T/C (second compound 3 µM, first compound 100 µM): 104% | viability, T/C (second compound 9.49 µM, first compound 0.316 µM): 102% | viability, T/C (second compound 9.49 µM, first compound 1 µM): 109% | viability, T/C (second compound 9.49 µM, first compound 3.16 µM): 98.2% | viability, T/C (second compound 9.49 µM, first compound 10 µM): 89.6% | viability, T/C (second compound 9.49 µM, first compound 31.6 µM): 68.6% | viability, T/C (second compound 9.49 µM, first compound 100 µM): 109% | viability, T/C (second compound 30 µM, first compound 0.316 µM): 87.5% | viability, T/C (second compound 30 µM, first compound 1 µM): 94.7% | viability, T/C (second compound 30 µM, first compound 3.16 µM): 91.9% | viability, T/C (second compound 30 µM, first compound 10 µM): 88.9% | viability, T/C (second compound 30 µM, first compound 31.6 µM): 25.6% | viability, T/C (second compound 30 µM, first compound 100 µM): 95.8%
